Experimental findings from patent publication US20030215462A1, “Use of UGT inhibitors to increase bioavailability” (priority 2001, published 2003) are described below.

For data set [1], the target named is T1, UGT1A6 (Homo sapiens, UniProt P19224).
T1 sequence (P19224 27-532): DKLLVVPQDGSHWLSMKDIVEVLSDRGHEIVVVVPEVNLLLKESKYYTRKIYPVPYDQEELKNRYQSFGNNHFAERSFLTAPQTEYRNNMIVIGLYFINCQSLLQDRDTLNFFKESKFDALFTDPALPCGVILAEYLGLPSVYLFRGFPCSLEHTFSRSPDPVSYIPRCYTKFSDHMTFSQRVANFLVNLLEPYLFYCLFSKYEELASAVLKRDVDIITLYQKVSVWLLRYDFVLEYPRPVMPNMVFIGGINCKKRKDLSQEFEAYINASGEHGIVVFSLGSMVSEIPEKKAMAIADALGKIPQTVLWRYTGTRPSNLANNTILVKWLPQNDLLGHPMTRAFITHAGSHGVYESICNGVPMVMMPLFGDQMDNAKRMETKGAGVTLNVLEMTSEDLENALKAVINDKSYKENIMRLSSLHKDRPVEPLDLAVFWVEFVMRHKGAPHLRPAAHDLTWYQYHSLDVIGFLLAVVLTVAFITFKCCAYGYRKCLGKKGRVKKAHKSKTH
As to the kind of experiment: Substrate glucuronidation by recombinant UGT1A6. Conditions: for 7-HFC glucuronidation rate: 7-HFC 50 μM.

The test system of data set [2] is UGT enzymes of human liver microsomes. As to the kind of experiment: Inhibition of labetalol glucuronidation (LG1, LG2) in human liver microsomes. It is filed as biochemical. Conditions: labetalol 50 μM. In general terms: Liver microsomes are a subcellular fraction often used to study metabolism.
Data set [3] deals with T2, UGT1A1 (Homo sapiens, UniProt P22309).
T2 sequence (P22309 26-533): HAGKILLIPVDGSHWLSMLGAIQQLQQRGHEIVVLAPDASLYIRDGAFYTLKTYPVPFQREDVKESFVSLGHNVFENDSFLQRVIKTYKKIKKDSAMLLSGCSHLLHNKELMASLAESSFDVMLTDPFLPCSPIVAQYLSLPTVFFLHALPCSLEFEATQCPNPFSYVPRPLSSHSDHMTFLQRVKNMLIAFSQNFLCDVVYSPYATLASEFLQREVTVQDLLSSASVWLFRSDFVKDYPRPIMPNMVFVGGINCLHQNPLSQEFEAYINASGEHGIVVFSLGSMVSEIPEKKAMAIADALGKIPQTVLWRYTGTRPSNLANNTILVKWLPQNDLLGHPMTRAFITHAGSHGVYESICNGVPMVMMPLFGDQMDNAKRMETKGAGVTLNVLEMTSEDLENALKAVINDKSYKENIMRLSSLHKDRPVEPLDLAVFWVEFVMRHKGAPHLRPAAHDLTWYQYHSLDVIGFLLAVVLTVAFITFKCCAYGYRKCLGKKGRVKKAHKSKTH
Kind of data set: in vitro.
Experimental: (§1) Compounds were eluted using a binary solvent gradient system. Solvent A was water brought to pH 8 with NH4OH. Solvent B was methanol. Solvent flow rate was 1 ml/min and the column temperature was maintained at 50° C. Detection was at 280 nm. […] The system was then returned to the initial conditions and equilibrated for 3 min.

The target of data set [4] is T3, UGT1A3 (Homo sapiens, UniProt P35503).
T3 sequence (P35503 29-534): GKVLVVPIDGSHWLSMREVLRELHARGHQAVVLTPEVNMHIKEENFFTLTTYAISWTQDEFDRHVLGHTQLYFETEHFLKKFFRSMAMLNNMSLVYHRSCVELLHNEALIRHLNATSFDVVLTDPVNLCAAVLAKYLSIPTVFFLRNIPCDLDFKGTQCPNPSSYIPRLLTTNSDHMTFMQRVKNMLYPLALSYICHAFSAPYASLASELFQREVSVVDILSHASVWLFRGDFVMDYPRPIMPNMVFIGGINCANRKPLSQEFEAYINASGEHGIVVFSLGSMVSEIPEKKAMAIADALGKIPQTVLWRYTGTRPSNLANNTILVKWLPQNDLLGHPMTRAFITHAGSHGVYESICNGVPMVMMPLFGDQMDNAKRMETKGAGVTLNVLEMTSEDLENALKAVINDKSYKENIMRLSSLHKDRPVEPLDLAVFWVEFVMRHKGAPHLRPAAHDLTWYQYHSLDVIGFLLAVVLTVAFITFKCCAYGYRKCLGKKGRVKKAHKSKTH
Kind of data set: in vitro.
Experimental: as §1

In data set [5] the target is T4, UGT2B7 (Homo sapiens, UniProt P16662).
T4 sequence (P16662 24-529): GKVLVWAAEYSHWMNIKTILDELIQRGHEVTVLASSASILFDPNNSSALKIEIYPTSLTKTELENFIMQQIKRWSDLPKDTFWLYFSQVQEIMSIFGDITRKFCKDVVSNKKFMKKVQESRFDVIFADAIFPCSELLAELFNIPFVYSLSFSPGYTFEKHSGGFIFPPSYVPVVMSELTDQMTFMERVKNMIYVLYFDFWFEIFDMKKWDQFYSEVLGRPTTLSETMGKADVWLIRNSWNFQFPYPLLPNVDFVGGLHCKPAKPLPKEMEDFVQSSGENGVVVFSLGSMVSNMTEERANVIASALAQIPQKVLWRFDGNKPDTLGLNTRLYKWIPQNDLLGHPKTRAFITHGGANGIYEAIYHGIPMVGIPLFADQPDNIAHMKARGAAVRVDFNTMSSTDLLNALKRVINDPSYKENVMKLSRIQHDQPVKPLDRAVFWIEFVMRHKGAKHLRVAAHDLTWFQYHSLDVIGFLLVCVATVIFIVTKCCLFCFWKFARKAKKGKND
Conditions: 30 min, 100 μM, pH 7.5.

Data set [6] addresses UGT2B15 (Homo sapiens, UniProt P54855).
Setting [7] is: pH 7.5, % of control metabolism, raloxifene G1.
The mark [8] stands for this setting: pH 7.5, % of control metabolism, raloxifene G2.
[9] abbreviates: pH 7.5, Inhibition of raloxifene glucuronidation, G1, UGT1A1.
Setting [10] is: pH 7.5, Inhibition of raloxifene glucuronidation, G2, UGT1A1.
Setting [11] is: pH 7.5, Inhibition of raloxifene glucuronidation, G1, UGT1A3.
Where [12] appears, read: pH 7.5, Inhibition of raloxifene glucuronidation, G2, UGT1A3.

Sequence of UGT2B15 (P54855 24-530): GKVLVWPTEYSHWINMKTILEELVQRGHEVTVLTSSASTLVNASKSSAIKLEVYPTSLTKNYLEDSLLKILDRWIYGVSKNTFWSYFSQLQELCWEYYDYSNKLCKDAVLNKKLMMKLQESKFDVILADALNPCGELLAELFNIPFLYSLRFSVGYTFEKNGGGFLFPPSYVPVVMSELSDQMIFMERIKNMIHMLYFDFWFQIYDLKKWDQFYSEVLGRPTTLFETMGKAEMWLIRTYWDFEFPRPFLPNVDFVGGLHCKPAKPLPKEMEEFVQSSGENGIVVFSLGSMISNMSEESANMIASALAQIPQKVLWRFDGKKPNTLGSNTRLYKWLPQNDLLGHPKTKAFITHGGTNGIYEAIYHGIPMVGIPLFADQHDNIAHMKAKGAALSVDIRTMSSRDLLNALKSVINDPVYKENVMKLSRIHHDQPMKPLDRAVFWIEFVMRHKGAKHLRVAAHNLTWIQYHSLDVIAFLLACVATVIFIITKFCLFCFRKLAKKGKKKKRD

For `O=c1cc(C(F)(F)F)c2ccc(O)cc2o1` [7-HFC, 7-hydroxy-4-(trifluoromethyl)coumarin], in data set [1] (UGT1A6), the “7-HFC glucuronidation rate in Panvera Bacculosomes as % of Gentest Supersomes” value was 31%. The 7-HFC glucuronidation rate in data set [1] (UGT1A6 Bacculosomes 250 μg/ml) amounted to 1528 ± 34 pmol/min/mg protein; in data set [1] (UGT1A6 Supersomes 250 μg/ml) it was 4904 ± 368 pmol/min/mg protein.

Consider `CC/C(=C(/CC)c1ccc(O)cc1)c1ccc(O)cc1` [Diethylstilbestrol, reference compound], for which, in data set [2] (inhibitor 10 μM), the “residual metabolism (percentage of control), labetalol LG1” value is 66 (6) % and the “residual metabolism (percentage of control), labetalol LG2” value was 68 (7) %. Also, in data set [2] (inhibitor 25 μM), the “residual metabolism (percentage of control), labetalol LG1” value is on record as 39 (1) % and the “residual metabolism (percentage of control), labetalol LG2” value is given as 45 (3) %.

Consider `O=C(O)c1cc(-c2ccc(F)cc2F)ccc1O` [Diflunisal, reference compound], for which the activity at 15 min, 25 µM in data set [3] (setting [7]), in data set [3] (setting [8]), in data set [3] (setting [9]) and in data set [3] (setting [10]) was 53% in each case. For the same compound, the activity at 15 min, 50 µM in data set [3] (setting [7]) was determined as 31%; in data set [3] (setting [8]) it was 33%; in data set [3] (setting [9]), 31%; in data set [3] (setting [10]), 33%; in data set [4] (setting [7]), 83%; in data set [4] (setting [8]) it was 81%. Also, the figures for the activity at 15 min, 50 µM in data set [4] (setting [11]) and in data set [4] (setting [12]) were 83% and 81%, respectively. Also, the “residual metabolism (percentage of control), labetalol LG1” value in data set [2] (inhibitor 500 μM) is 43 (5) %. Further, in data set [2] (inhibitor 500 μM), the “residual metabolism (percentage of control), labetalol LG2” value was 35 (2) %.

As to `O=C(O[C@@H]1Cc2c(O)cc(O)cc2O[C@@H]1c1ccc(O)c(O)c1)c1cc(O)c(O)c(O)c1` [Epicatechin gallate], the activity at 15 min, 25 µM in data set [3] (setting [7]) was found to be 39%; in data set [3] (setting [8]), 43%; in data set [3] (setting [9]), 39%; in data set [3] (setting [10]) it was 43%. Further, the activity at 15 min, 50 µM was 23% in data set [3] (setting [7]); 25% in data set [3] (setting [8]); 23% in data set [3] (setting [9]); 25% in data set [3] (setting [10]); 57% in data set [4] (setting [7]); 42% in data set [4] (setting [8]). Also, the activity at 15 min, 50 µM is 57% in data set [4] (setting [11]) and 42% in data set [4] (setting [12]).

`C=CCc1ccc(O)c(OC)c1` [Eugenol]: the activity at 15 min, 50 µM in data set [3] (pH 7.5, % of control metabolism, raloxifene G1, UGT1A1, inhibitor 50 μM) is 85%; in data set [3] (pH 7.5, % of control metabolism, raloxifene G2, UGT1A1, inhibitor 50 μM) it was 79%; in data set [3] (pH 7.5, Inhibition of raloxifene glucuronidation, G1, UGT1A1, G1, inhibitor 50 μM, raloxifene 50 μM, 250 μg/ml Supersomes, 1 mM UDPGA, 15 min), 85%; in data set [3] (pH 7.5, Inhibition of raloxifene glucuronidation, G2, UGT1A1, G2, inhibitor 50 μM, raloxifene 50 μM, 250 μg/ml Supersomes, 1 mM UDPGA, 15 min), 79%; in data set [4] (setting [7]) it was 89%; in data set [4] (setting [8]) it was 85%. Besides, the activity at 15 min, 50 µM in data set [4] (setting [11]) amounted to 89%; in data set [4] (setting [12]), 85%.

Regarding `CC(CCc1ccccc1)NCC(O)c1ccc(O)c(C(N)=O)c1` (stereo not drawn) [Labetalol, labetalol], in data set [5], the LG1/LG2 was 12; the “labetalol metabolite LG1, peak area normalized to internal standard” value is on record as 993 (52); the “labetalol metabolite LG2, peak area normalized to internal standard” value is 81 (3). Further, the “labetalol metabolism, in words” value in data set [6] is “No detectable metabolism was observed”.

Take `CCCOC(=O)c1cc(O)c(O)c(O)c1` [Propyl gallate]: the activity at 15 min, 50 µM in data set [3] (setting [7]) stood at 72%; in data set [3] (setting [8]), 73%; in data set [3] (setting [9]), 72%; in data set [3] (setting [10]), 73%; in data set [4] (setting [7]), 55%; in data set [4] (setting [8]) it was 56%. Further, the activity at 15 min, 50 µM turned out to be 55% in data set [4] (setting [11]) and 56% in data set [4] (setting [12]). For the same compound, the activity at 15 min, 25 µM in data set [4] (setting [11]) is 72%; in data set [4] (setting [12]), 79%.

For `O=c1c(O)c(-c2ccc(O)c(O)c2)oc2cc(O)cc(O)c12` [Quercetin], in data set [3] (setting [7]), the activity at 15 min, 10 µM came out at 45%; the activity at 15 min, 25 µM is 13%; the activity at 15 min, 50 µM stood at 2%. In data set [3] (setting [8]), the activity at 15 min, 10 µM was determined as 43%; the activity at 15 min, 25 µM was determined as 13%; the activity at 15 min, 50 µM came to 3%. In data set [3] (setting [9]), this compound showed an activity at 15 min, 2 μM of 89%; an activity at 15 min, 5 µM of 71%; an activity at 15 min, 25 µM of 13%; an activity at 15 min, 50 µM of 2%. Also, in data set [3] (setting [10]), the activity at 15 min, 2 μM is 90%; the activity at 15 min, 5 µM amounted to 70%; the activity at 15 min, 25 µM amounted to 13%; the activity at 15 min, 50 µM amounted to 3%. In addition, in data set [2] (inhibitor 500 μM), the “residual metabolism (percentage of control), labetalol LG1” value was 36 (3) % and the “residual metabolism (percentage of control), labetalol LG2” value is recorded as 23 (1) %.

For the compound `O=C(OC[C@H]1O[C@@H](OC(=O)c2cc(O)c(O)c(OC(=O)c3cc(O)c(O)c(O)c3)c2)[C@H](OC(=O)c2cc(O)c(O)c(OC(=O)c3cc(O)c(O)c(O)c3)c2)[C@@H](OC(=O)c2cc(O)c(O)c(OC(=O)c3cc(O)c(O)c(O)c3)c2)[C@@H]1OC(=O)c1cc(O)c(O)c(OC(=O)c2cc(O)c(O)c(O)c2)c1)c1cc(O)c(O)c(OC(=O)c2cc(O)c(O)c(O)c2)c1` [Tannic acid], the “residual metabolism (percentage of control), labetalol LG1” value in data set [2] (inhibitor 10 μM) is on record as 91 (2) %; in data set [2] (inhibitor 25 μM), 56 (2) %. Further, the “residual metabolism (percentage of control), labetalol LG2” value in data set [2] (inhibitor 10 μM) is given as 88 (4) %; in data set [2] (inhibitor 25 μM), 51 (6) %.
